Assay results as given in ChEMBL document CHEMBL3885861, “Open TG-GATES”.

Species on record: Rattus norvegicus
Test: Open TG-GATES - Regimen: Single
Type: toxicity, organism-based, Sprague-Dawley
Parameters: regimen Single, gender Male, age 6 weeks
Conditions: in vivo, ip, 1500 mg/kg, route intraperitoneal injection, dose level High; for APTT / Bas / Eos / Fbg / Hb / Ht / Lym / MCH / MCHC / MCV / Mono / Neu / PT / Plat / RBC / Ret / WBC: tissue Blood; for KIDNEY_L / KIDNEY_R / KIDNEY_TOTAL: tissue Kidney; for LIVER: tissue Liver; for A/G / ALP / ALT / AST / BUN / CRE / Ca / Cl / DBIL / GLC / IP / K / LDH / Na / PL / RALB / TBIL / TC / TG / TP / gamma-GTP: tissue Plasma

Work on `CCCCS(=N)(=O)CCC(N)C(=O)O` (configuration not stated) [BUTHIONINE SULFOXIMINE] yielded a TERMINAL_BW (3 h) of 213.4 g, an APTT (3 h) of 16 s and a Bas (3 h) of 0%. It also gave an Eos (3 h) of 1%, a Fbg (3 h) of 216.4 mg/dL and a Hb (3 h) of 13.2 g/dL. It also gave a Ht (3 h) of 39.5%, a Lym (3 h) of 61.4% and an MCH (3 h) of 21.6 pg. It also gave an MCHC (3 h) of 33.4%, an MCV (3 h) of 64.7 fL and a Mono (3 h) of 9.2%. For the same compound, the Neu (3 h) was 29%, the PT (3 h) was 12 s and the Plat (3 h) was 119.7 x10_4/uL. It also gave an RBC (3 h) of 610.4 x10_4/ul, a Ret (3 h) of 8.8% and a WBC (3 h) of 106.8 x10_2/uL. It also gave a KIDNEY_L (3 h) of 0.9 g, a KIDNEY_R (3 h) of 1 g and a KIDNEY_TOTAL (3 h) of 1.9 g. For the same compound, the LIVER (3 h) was 10.1 g, the A/G (3 h) was 2.2 and the ALP (3 h) was 832 IU/L. The ALT (3 h) was 43.4 IU/L, the AST (3 h) was 48 IU/L and the BUN (3 h) was 15.2 mg/dL. For the same compound, the CRE (3 h) was 0.4 mg/dL, the Ca (3 h) was 10.9 mg/dL and the Cl (3 h) was 104.8 meq/L. The DBIL (3 h) was 0.066 mg/dL, the GLC (3 h) was 191.2 mg/dL and the IP (3 h) was 9.8 mg/dL. It also gave a K (3 h) of 4.5 meq/L, an LDH (3 h) of 89.2 IU/L and a Na (3 h) of 138.8 meq/L. For the same compound, the PL (3 h) was 137.8 mg/dL, the RALB (3 h) was 3.8 g/dL and the TBIL (3 h) was 0.3 mg/dL. The TC (3 h) was 70.2 mg/dL, the TG (3 h) was 57.8 mg/dL and the TP (3 h) was 5.5 g/dL. For the same compound, the gamma-GTP (3 h) was 1 IU/L, the TERMINAL_BW (6 h) was 215.9 g and the APTT (6 h) was 16.4 s. For the same compound, the Bas (6 h) was 0%, the Eos (6 h) was 0.8% and the Fbg (6 h) was 218.6 mg/dL. For the same compound, the Hb (6 h) was 13.3 g/dL, the Ht (6 h) was 39.6% and the Lym (6 h) was 67.2%. It also gave an MCH (6 h) of 22 pg, an MCHC (6 h) of 33.6% and an MCV (6 h) of 65.5 fL. It also gave a Mono (6 h) of 6.6%, a Neu (6 h) of 25.6% and a PT (6 h) of 10.8 s. It also gave a Plat (6 h) of 124.2 x10_4/uL, an RBC (6 h) of 605 x10_4/ul and a Ret (6 h) of 8.3%. The WBC (6 h) was 104.4 x10_2/uL, the KIDNEY_L (6 h) was 0.9 g and the KIDNEY_R (6 h) was 1 g. It also gave a KIDNEY_TOTAL (6 h) of 1.9 g, an LIVER (6 h) of 9 g and an A/G (6 h) of 1.9. The ALP (6 h) was 696.6 IU/L, the ALT (6 h) was 31 IU/L and the AST (6 h) was 56.2 IU/L. For the same compound, the BUN (6 h) was 11.6 mg/dL, the CRE (6 h) was 0.7 mg/dL and the Ca (6 h) was 10.9 mg/dL. The Cl (6 h) was 104.6 meq/L, the DBIL (6 h) was 0.004 mg/dL and the GLC (6 h) was 189.2 mg/dL. It also gave an IP (6 h) of 10 mg/dL, a K (6 h) of 4.5 meq/L and an LDH (6 h) of 107.8 IU/L. The Na (6 h) was 140 meq/L, the PL (6 h) was 138.6 mg/dL and the RALB (6 h) was 3.5 g/dL. For the same compound, the TBIL (6 h) was 0.3 mg/dL, the TC (6 h) was 80.8 mg/dL and the TG (6 h) was 46.4 mg/dL. For the same compound, the TP (6 h) was 5.4 g/dL, the gamma-GTP (6 h) was 1.6 IU/L and the TERMINAL_BW (9 h) was 211.3 g. For the same compound, the APTT (9 h) was 17.8 s, the Bas (9 h) was 0% and the Eos (9 h) was 0.8%. It also gave a Fbg (9 h) of 255.4 mg/dL, a Hb (9 h) of 13.6 g/dL and a Ht (9 h) of 40.4%. For the same compound, the Lym (9 h) was 57.4%, the MCH (9 h) was 21.8 pg and the MCHC (9 h) was 33.7%. For the same compound, the MCV (9 h) was 64.8 fL, the Mono (9 h) was 5.2% and the Neu (9 h) was 36.6%. It also gave a PT (9 h) of 11.3 s, a Plat (9 h) of 119.4 x10_4/uL and an RBC (9 h) of 623.4 x10_4/ul. It also gave a Ret (9 h) of 8.2%, a WBC (9 h) of 103.7 x10_2/uL and a KIDNEY_L (9 h) of 1 g. It also gave a KIDNEY_R (9 h) of 1 g, a KIDNEY_TOTAL (9 h) of 1.9 g and an LIVER (9 h) of 8.6 g. It also gave an A/G (9 h) of 1.9, an ALP (9 h) of 782.6 IU/L and an ALT (9 h) of 27 IU/L. The AST (9 h) was 47.4 IU/L, the BUN (9 h) was 12.2 mg/dL and the CRE (9 h) was 0.5 mg/dL. For the same compound, the Ca (9 h) was 11.3 mg/dL, the Cl (9 h) was 106.2 meq/L and the DBIL (9 h) was 0.012 mg/dL. The GLC (9 h) was 202.4 mg/dL, the IP (9 h) was 9.2 mg/dL and the K (9 h) was 4.9 meq/L. For the same compound, the LDH (9 h) was 89.4 IU/L, the Na (9 h) was 138.6 meq/L and the PL (9 h) was 137.6 mg/dL. The RALB (9 h) was 3.7 g/dL, the TBIL (9 h) was 0.3 mg/dL and the TC (9 h) was 80.8 mg/dL. It also gave a TG (9 h) of 37.6 mg/dL, a TP (9 h) of 5.6 g/dL and a gamma-GTP (9 h) of 1.4 IU/L. For the same compound, the TERMINAL_BW (24 h) was 224.8 g, the APTT (24 h) was 16.6 s and the Bas (24 h) was 0%. For the same compound, the Eos (24 h) was 1.4%, the Fbg (24 h) was 273.2 mg/dL and the Hb (24 h) was 13.3 g/dL. The Ht (24 h) was 39.7%, the Lym (24 h) was 73.8% and the MCH (24 h) was 21.7 pg. The MCHC (24 h) was 33.5%, the MCV (24 h) was 64.8 fL and the Mono (24 h) was 7.2%. For the same compound, the Neu (24 h) was 17.8%, the PT (24 h) was 11.7 s and the Plat (24 h) was 119.6 x10_4/uL. For the same compound, the RBC (24 h) was 613.4 x10_4/ul, the Ret (24 h) was 9.3% and the WBC (24 h) was 98.2 x10_2/uL. It also gave a KIDNEY_L (24 h) of 1 g, a KIDNEY_R (24 h) of 1 g and a KIDNEY_TOTAL (24 h) of 2 g. For the same compound, the LIVER (24 h) was 10.5 g, the A/G (24 h) was 1.8 and the ALP (24 h) was 1035 IU/L. It also gave an ALT (24 h) of 29.4 IU/L, an AST (24 h) of 52.6 IU/L and a BUN (24 h) of 19 mg/dL. The CRE (24 h) was 0.5 mg/dL, the Ca (24 h) was 11.3 mg/dL and the Cl (24 h) was 104.2 meq/L. It also gave a DBIL (24 h) of 0.024 mg/dL, a GLC (24 h) of 205 mg/dL and an IP (24 h) of 8.7 mg/dL. It also gave a K (24 h) of 4.7 meq/L, an LDH (24 h) of 104.8 IU/L and a Na (24 h) of 139 meq/L. For the same compound, the PL (24 h) was 143.6 mg/dL, the RALB (24 h) was 3.7 g/dL and the TBIL (24 h) was 0.3 mg/dL. It also gave a TC (24 h) of 81.6 mg/dL, a TG (24 h) of 67.4 mg/dL and a TP (24 h) of 5.8 g/dL. The gamma-GTP (24 h) was 1.4 IU/L.
